Experimental data: patent US8507535B2 (Hoffmann-La Roche Inc., priority 2010, dated 2013)

Biological target: human NK3 receptor (Homo sapiens (Human), UniProt P29371)
Assay: [3H]SR142801 competition binding assay
Details: membranes from HEK293 cells transiently expressing recombinant human NK3 receptor; [3H]SR142801 radioligand; read-out: Ki (uM) hNK3
Protocol: [^3H]SR142801 Competition Binding Assay
hNK3 receptor binding experiment were performed using [^3H]SR142801 (Catalog No. TRK1035, specific activity: 74.0 Ci/mmol, Amersham, GE Healthcare UK limited, Buckinghamshire, UK) and membrane isolated from HEK293 cells transiently expressing recombinant human NK3 receptor. After thawing, the membrane homogenates were centrifuged at 48,000×g for 10 min at 4° C., the pellets were resuspended in the 50 mM Tris-HCl, 4 mM MnCl2, 1 μM phosphoramidon, 0.1% BSA binding buffer at pH 7.4 to a final assay concentration of 5 μg protein/well. For inhibition experiments, membranes were incubated with [^3H]SR142801 at a concentration equal to KD value of radioligand and 10 concentrations of the inhibitory compound (0.0003-10 μM) (in a total reaction volume of 500 μl) for 75 min at room temperature (RT). At the end of the incubation, membranes were filtered onto unitfilter (96-well white microplate with bonded GF/C filter preincubated 1 h in 0.3% PEI+0.3% BSA, Packard BioScience, Meriden, Conn.) with a Filtermate 196 harvester (Packard BioScience) and washed 4 times with ice-cold 50 mM Tris-HCl, pH 7.4 buffer. Nonspecific binding was measured in the presence of 10 μM SB222200 for both radioligands. The radioactivity on the filter was counted (5 min) on a Packard Top-count microplate scintillation counter with quenching correction after addition of 45 μl of microscint 40 (Can berra Packard S. A., Zurich, Switzerland) and shaking for 1 h. Inhibition curves were fitted according to the Hill equation: y=100/(1+(x/IC50)^nH), where nH=slope factor using Excel-fit 4 software (Microsoft). IC50 values were derived from the inhibition curve and the affinity constant (Ki) values were calculated using the Cheng-Prussoff equation Ki=IC50/(1+[L]/KD) where [L] is the concentration of radioligand and KD is its dissociation constant at the receptor, derived from the saturation isotherm. All experiments were performed in duplicate and the mean±standard error (SEM) of the individual Ki values was calculated.

human NK3 receptor, sequence (P29371 whole entry): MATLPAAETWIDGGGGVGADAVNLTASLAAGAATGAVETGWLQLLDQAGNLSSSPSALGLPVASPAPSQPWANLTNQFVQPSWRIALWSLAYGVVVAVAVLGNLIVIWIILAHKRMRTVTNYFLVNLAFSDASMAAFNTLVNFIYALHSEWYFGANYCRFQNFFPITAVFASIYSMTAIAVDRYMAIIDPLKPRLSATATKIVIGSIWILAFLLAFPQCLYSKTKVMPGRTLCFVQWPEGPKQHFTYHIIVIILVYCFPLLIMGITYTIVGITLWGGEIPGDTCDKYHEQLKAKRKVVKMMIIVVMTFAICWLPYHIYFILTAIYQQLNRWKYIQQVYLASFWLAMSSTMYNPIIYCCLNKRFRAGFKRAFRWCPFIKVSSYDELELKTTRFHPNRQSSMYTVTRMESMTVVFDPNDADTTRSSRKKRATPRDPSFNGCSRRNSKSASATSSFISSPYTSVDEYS

Structure (SMILES)	Ki [µM]
CC1(C(=O)N2CCC(C(=O)N3C[C@H](c4ccc(Cl)cc4)[C@@](C)(COc4ccc(Cl)cn4)C3)CC2)CC1 (racemic) [Example 3, [(3RS,4RS)-4-(4-Chloro-phenyl)-3-(5-chloro-pyridin-2-yloxymethyl)-3-methyl-pyrrolidin-1-yl]-[1-(1-methyl-cyclopropanecarbonyl)-piperidin-4-yl]-methanone]	0.0072
C[C@]1(COc2ccc(Cl)cn2)CN(C(=O)C2CCN(C3CCCCC3)CC2)C[C@@H]1c1ccc(Cl)cc1 (racemic) [Example 14, [(3RS,4RS)-4-(4-Chloro-phenyl)-3-(5-chloro-pyridin-2-yloxymethyl)-3-methyl-pyrrolidin-1-yl]-(1-cyclohexyl-piperidin-4-yl)-methanone]	0.015
CC(C)CN1CCC(C(=O)N2C[C@H](c3ccc(Cl)cc3)[C@@](C)(COc3ccc(Cl)cn3)C2)CC1 (racemic) [Example 12, [(3RS,4RS)-4-(4-Chloro-phenyl)-3-(5-chloro-pyridin-2-yloxymethyl)-3-methyl-pyrrolidin-1-yl]-(1-isobutyl-piperidin-4-yl)-methanone]	0.0225
C[C@]1(COc2ccc(Cl)cn2)CN(C(=O)c2ccc(C#N)cc2)C[C@@H]1c1ccc(Cl)cc1 (racemic) [Example 8, 4-[(3RS,4RS)-4-(4-Chloro-phenyl)-3-(5-chloro-pyridin-2-yloxymethyl)-3-methyl-pyrrolidine-1-carbonyl]-benzonitrile]	0.0451
CC(=O)N1CCC(C(=O)N2C[C@H](c3ccc(Cl)cc3)[C@@](C)(COc3ccc(Cl)cn3)C2)CC1 (racemic) [Example 11, 1-{4-[(3RS,4RS)-4-(4-Chloro-phenyl)-3-(5-chloro-pyridin-2-yloxymethyl)-3-methyl-pyrrolidine-1-carbonyl]-piperidin-1-yl}-ethanone]	0.0106
CC(C)C(=O)N1CCC(C(=O)N2C[C@H](c3ccc(Cl)cc3)[C@@](C)(COc3ccc(Cl)cn3)C2)CC1 (racemic) [Example 13, 1-{4-[(3RS,4RS)-4-(4-Chloro-phenyl)-3-(5-chloro-pyridin-2-yloxymethyl)-3-methyl-pyrrolidine-1-carbonyl]-piperidin-1-yl}-2-methyl-propan-1-one]	0.0087
C[C@]1(COc2ccc(Cl)cn2)CN(C(=O)c2ccc(-n3cccn3)nc2)C[C@@H]1c1ccc(Cl)cc1 (racemic) [Example 6, [(3RS,4RS)-4-(4-Chloro-phenyl)-3-(5-chloro-pyridin-2-yloxymethyl)-3-methyl-pyrrolidin-1-yl]-(6-pyrazol-1-yl-pyridin-3-yl)-methanone]	0.0352
C[C@]1(COc2ccc(Cl)cn2)CN(C(=O)c2ccnc(Cl)c2)C[C@@H]1c1ccc(Cl)cc1 (racemic) [Example 5]	0.0618
COc1ccc(C(=O)N2C[C@H](c3ccc(Cl)cc3)[C@@](C)(COc3ccc(Cl)cn3)C2)cn1 (racemic) [Example 9, [(3RS,4RS)-4-(4-Chloro-phenyl)-3-(5-chloro-pyridin-2-yloxymethyl)-3-methyl-pyrrolidin-1-yl]-(6-methoxy-pyridin-3-yl)-methanone]	0.0563

Same assay, conditions: membranes from HEK293 cells transiently expressing recombinant human NK3 receptor; [3H]SR142801 radioligand; second half of table, head prints nM; read-out: Ki (nM) hNK3

Structure (SMILES)	Ki [µM]
C[C@]1(COc2ccc(Cl)cn2)CN(C(=O)C2CCN(c3ccc(C(F)(F)F)cn3)CC2)C[C@@H]1c1ccc(Cl)cc1 (racemic) [Example 22, [(3RS,4RS)-4-(4-Chloro-phenyl)-3-(5-chloro-pyridin-2-yloxymethyl)-3-methyl-pyrrolidin-1-yl]-(5′-trifluoromethyl-3,4,5,6-tetrahydro-2H-[1,2′]bipyridinyl-4-yl)-methanone]	0.0272
C[C@]1(COc2ccc(Cl)cn2)CN(C(=O)c2ccc(N3CCCCC3=O)cc2)C[C@@H]1c1ccc(Cl)cc1 (racemic) [Example 27, 1-{4-[(3RS,4RS)-4-(4-Chloro-phenyl)-3-(5-chloro-pyridin-2-yloxymethyl)-3-methyl-pyrrolidine-1-carbonyl]-phenyl}-piperidin-2-one]	0.0931
C[C@]1(COc2ccc(Cl)cn2)CN(C(=O)C2CCN(c3ccc(F)cn3)CC2)C[C@@H]1c1ccc(Cl)cc1 (racemic) [Example 19, [(3RS,4RS)-4-(4-Chloro-phenyl)-3-(5-chloro-pyridin-2-yloxymethyl)-3-methyl-pyrrolidin-1-yl]-(5′-fluoro-3,4,5,6-tetrahydro-2H-[1,2′]bipyridinyl-4-yl)-methanone]	0.0112
C[C@]1(COc2ccc(Cl)cn2)CN(C(=O)C2CCN(c3ccc(C#N)nc3)CC2)C[C@@H]1c1ccc(Cl)cc1 (racemic) [Example 25, 4-[(3RS,4RS)-4-(4-Chloro-phenyl)-3-(5-chloro-pyridin-2-yloxymethyl)-3-methyl-pyrrolidine-1-carbonyl]-3,4,5,6-tetrahydro-2H-[1,3′]bipyridinyl-6′-carbonitrile]	0.0044
C[C@]1(COc2ccc(Cl)cn2)CN(C(=O)C2CCN(c3ccc(C#N)cc3)CC2)C[C@@H]1c1ccc(Cl)cc1 (racemic) [Example 17, 4-{4-[(3RS,4RS)-4-(4-Chloro-phenyl)-3-(5-chloro-pyridin-2-yloxymethyl)-3-methyl-pyrrolidine-1-carbonyl]-piperidin-1-yl}-benzonitrile]	0.0023
COc1ccc(N2CCC(C(=O)N3C[C@H](c4ccc(Cl)cc4)[C@@](C)(COc4ccc(Cl)cn4)C3)CC2)nn1 [Example 26, [(3R,4R)-4-(4-Chloro-phenyl)-3-(5-chloro-pyridin-2-yloxymethyl)-3-methyl-pyrrolidin-1-yl]-[1-(6-methoxy-pyridazin-3-yl)-piperidin-4-yl]-methanone]	0.0114
C[C@]1(COc2ccc(Cl)cn2)CN(C(=O)C2CCN(c3ccc(C#N)cn3)CC2)C[C@@H]1c1ccc(Cl)cc1 (racemic) [Example 16, 4-[(3RS,4RS)-4-(4-Chloro-phenyl)-3-(5-chloro-pyridin-2-yloxymethyl)-3-methyl-pyrrolidine-1-carbonyl]-3,4,5,6-tetrahydro-2H-[1,2′]bipyridinyl-5′-carbonitrile]	0.0037
C[C@]1(COc2ccc(Cl)cn2)CN(C(=O)c2ccc(C#N)nc2)C[C@@H]1c1ccc(Cl)cc1 (racemic) [Example 21, 5-[(3RS,4RS)-4-(4-Chloro-phenyl)-3-(5-chloro-pyridin-2-yloxymethyl)-3-methyl-pyrrolidine-1-carbonyl]-pyridine-2-carbonitrile]	0.039
CC(=O)c1ccc(N2CCC(C(=O)N3C[C@H](c4ccc(Cl)cc4)[C@@](C)(COc4ccc(Cl)cn4)C3)CC2)nc1 (racemic) [Example 18, 1-{4-[(3RS,4RS)-4-(4-Chloro-phenyl)-3-(5-chloro-pyridin-2-yloxymethyl)-3-methyl-pyrrolidine-1-carbonyl]-3,4,5,6-tetrahydro-2H-[1,2′]bipyridinyl-5′-yl}-ethanone]	0.0059
C[C@]1(COc2ccc(Cl)cn2)CN(C(=O)C2CCN(c3ccc(Cl)cn3)CC2)C[C@@H]1c1ccc(Cl)cc1 (racemic) [Example 20, [(3RS,4RS)-4-(4-Chloro-phenyl)-3-(5-chloro-pyridin-2-yloxymethyl)-3-methyl-pyrrolidin-1-yl]-(5′-chloro-3,4,5,6-tetrahydro-2H-[1,2′]bipyridinyl-4-yl)-methanone]	0.0193
Cc1nc(-c2ccc(C(=O)N3C[C@H](c4ccc(Cl)cc4)[C@@](C)(COc4ccc(Cl)cn4)C3)cc2)no1 (racemic) [Example 24, [(3RS,4RS)-4-(4-Chloro-phenyl)-3-(5-chloro-pyridin-2-yloxymethyl)-3-methyl-pyrrolidin-1-yl]-[4-(5-methyl-[1,2,4]oxadiazol-3-yl)-phenyl]-methanone]	0.0261
